Reference: patent US20150322051A1, “Macrocyclic picolinamides as fungicides” (Dow AgroSciences LLC, priority 2014, published 2015)
Read-outs that look alike come from different tables or passages of the source.

Assays:
[1] = test system: Mycosphaerella graminicola; anamorph: Septoria tritici (SEPTTR); assay: Leaf blotch of wheat (SEPTTR) whole-plant fungicidal test; type: in vivo; details: Zymoseptoria tritici, topical; for pest or weed control at 121.5 g/ha: low volume (track spray) application, 121.5 g/H; for pest or weed control at 100 ppm: high volume application
Description: (§1) All fungicides were evaluated using the aforementioned method for their activity vs. all target diseases, unless stated otherwise. Wheat leaf blotch and brown rust activity were also evaluated using track spray applications, in which case the fungicides were formulated as EC formulations, containing 0.1% Trycol 5941 in the spray solutions. Wheat plants (variety Yuma) were grown from seed in a greenhouse in 50% mineral soil/50% soil-less Metro mix until the first leaf was fully emerged, with 7-10 seedlings per pot. These plants were inoculated with an aqueous spore suspension of Septoria tritici either prior to or after fungicide treatments. After inoculation the plants were kept in 100% relative humidity (one day in a dark dew chamber followed by two to three days in a lighted dew chamber at 20° C.) to permit spores to germinate and infect the leaf. The plants were then transferred to a greenhouse set at 20° C. for disease to develop. When disease symptoms were fully expressed on the 1st leaves of untreated plants, infection levels were assessed on a scale of 0 to 100 percent disease severity. Percent disease control was calculated using the ratio of disease severity on treated plants relative to untreated plants.

[2] = test system: Puccinia triticina; synonym: Puccinia recondita f. sp. tritici (PUCCRT); assay: Wheat brown rust (PUCCRT) whole-plant fungicidal test; type: in vivo; details: topical; for pest or weed control at 121.5 g/ha: low volume (track spray) application, 121.5 g/H; for pest or weed control at 100 ppm: high volume application
Description: as §1, with “plants. Wheat plants (variety Yuma) were grown from seed in a greenhouse in 50% mineral soil/50% soil-less Metro mix until the first leaf was fully emerged, with 7-10 seedlings per pot. These plants were inoculated with an aqueous spore suspension of Puccinia triticina either prior to or after fungicide treatments. […] The plants were then transferred to a greenhouse set at 24° C. for disease to develop. Fungicide formulation, application and disease assessment followed the procedures as described in the Example A.” for “plants.”

[3] = 24 h, 1 Day Protectant, read-out: Low Volume activity at 121.5 g/H SEPTTR 1DP (% disease control rating)
[4] = 72 h, 3 Day Curative, read-out: Low Volume activity at 121.5 g/H SEPTTR 3DC (% disease control rating)
[5] = 24 h, 1 Day Protectant, read-out: Low Volume activity at 121.5 g/H PUCCRT 1DP (% disease control rating)
[6] = 72 h, 3 Day Curative, read-out: Low Volume activity at 121.5 g/H PUCCRT 3DC (% disease control rating)
[7] = 24 h, 1 Day Protectant, read-out: High Volume activity at 100 ppm SEPTTR 1DP (% disease control rating)
[8] = 72 h, 3 Day Curative, read-out: High Volume activity at 100 ppm SEPTTR 3DC (% disease control rating)
[9] = 24 h, 1 Day Protectant, read-out: High Volume activity at 100 ppm PUCCRT 1DP (% disease control rating)
[10] = 72 h, 3 Day Curative, read-out: High Volume activity at 100 ppm PUCCRT 3DC (% disease control rating)

Compound	pest or weed control at 121.5 g/ha [1, 3] [%]	pest or weed control at 121.5 g/ha [1, 4] [%]	pest or weed control at 121.5 g/ha [2, 5] [%]	pest or weed control at 121.5 g/ha [2, 6] [%]	pest or weed control at 100 ppm [1, 7] [%]	pest or weed control at 100 ppm [1, 8] [%]	pest or weed control at 100 ppm [2, 9] [%]	pest or weed control at 100 ppm [2, 10] [%]
CCC[C@H]1CCC[C@H](NC(=O)c2nccc(OC)c2OCOC(C)=O)C(=O)O[C@@H](C)[C@@H]1c1ccccc1 [Compound 54]	> 70	> 70	> 70	> 70				
CCC[C@H]1CCC[C@H](NC(=O)c2nccc(OC)c2OC(C)=O)C(=O)O[C@@H](C)[C@@H]1c1ccccc1 [Compound 55]	> 70	> 70	> 70	> 70				
COc1ccnc(C(=O)N[C@H]2CCC[C@H](CCCc3ccccc3)[C@@H](CC(C)C)[C@H](C)OC2=O)c1OC(C)=O [Compound 56]	> 70	< 70	> 70	< 70				
COc1ccnc(C(=O)N[C@H]2CCC[C@H](CCCc3ccccc3)[C@@H](Cc3ccc(OC(F)(F)F)cc3)[C@H](C)OC2=O)c1OC(C)=O [Compound 57]	< 70	< 70	< 70	< 70				
COc1ccnc(C(=O)N[C@H]2CCC[C@H](CCCc3ccccc3)[C@@H](Cc3ccc(OC(F)(F)F)cc3)[C@H](C)OC2=O)c1OC(=O)C(C)C [Compound 58, 4-methoxy-2-(((3S,7S,8R,9S)-9-methyl-2-oxo-7-(3-phenylpropyl)-8-(4-(trifluoromethoxy)benzyl)oxonan-3-yl)carbamoyl)pyridin-3-yl isobutyrate]	< 70	< 70	< 70	< 70				
COc1ccnc(C(=O)N[C@H]2CCC[C@H](CCCc3ccccc3)[C@@H](Cc3ccc(OC(F)(F)F)cc3)[C@H](C)OC2=O)c1OCOC(C)=O [Compound 59]	> 70	< 70	> 70	< 70				
COc1ccnc(C(=O)N[C@H]2CCC[C@H](CC3CC3)[C@@H](Cc3ccccc3)[C@H](C)OC2=O)c1OC(C)=O [Compound 60]	> 70	> 70	> 70	> 70				
COc1ccnc(C(=O)N[C@H]2CCC[C@H](CC3CC3)[C@@H](Cc3ccccc3)[C@H](C)OC2=O)c1OCOC(C)=O [Compound 61]	> 70	> 70	> 70	> 70				
COc1ccnc(C(=O)N[C@H]2CCC[C@H](Cc3ccccc3)[C@@H](Cc3ccc(F)cc3)[C@H](C)OC2=O)c1OC(C)=O [Compound 62]	> 70	> 70	> 70	< 70				
COc1ccnc(C(=O)N[C@H]2CCC[C@H](Cc3ccccc3)[C@@H](Cc3ccc(F)cc3)[C@H](C)OC2=O)c1OCOC(C)=O [Compound 63]	> 70	> 70	> 70	< 70				
COc1ccnc(C(=O)N[C@H]2CCC[C@H](Cc3ccccc3)[C@@H](Cc3ccc(F)cc3)[C@H](C)OC2=O)c1OCOC(=O)C(C)C [Compound 64]	> 70	> 70	> 70	< 70				
COc1ccnc(C(=O)N[C@H]2CCC[C@H](Cc3ccc(C(F)(F)F)cc3)[C@@H](Cc3ccc(OC(F)(F)F)cc3)[C@H](C)OC2=O)c1OCOC(C)=O [Compound 65]	< 70	< 70	< 70	< 70				
CCOCC(=O)OCOc1c(OC)ccnc1C(=O)N[C@H]1CCC[C@H](Cc2ccc(C(F)(F)F)cc2)[C@@H](Cc2ccc(OC(F)(F)F)cc2)[C@H](C)OC1=O [Compound 66]	< 70	< 70	< 70	< 70				
COc1ccnc(C(=O)N[C@H]2CCC[C@H](Cc3ccc(C(F)(F)F)cc3)[C@@H](Cc3ccc(OC(F)(F)F)cc3)[C@H](C)OC2=O)c1OC(C)=O [Compound 67]	< 70	< 70	< 70	< 70				
COc1ccnc(C(=O)N[C@H]2CCC[C@H](Cc3ccccc3)[C@@H](Cc3ccc(OC(F)(F)F)cc3)[C@H](C)OC2=O)c1OCOC(C)=O [Compound 68]	< 70	< 70	< 70	< 70				
CCOCC(=O)OCOc1c(OC)ccnc1C(=O)N[C@H]1CCC[C@H](Cc2ccccc2)[C@@H](Cc2ccc(OC(F)(F)F)cc2)[C@H](C)OC1=O [Compound 69]	> 70	< 70	< 70	< 70				
COc1ccnc(C(=O)N[C@H]2CCC[C@H](CCCc3ccccc3)[C@@H](Cc3ccccc3)[C@H](C)OC2=O)c1OCOC(C)=O [Compound 70]	> 70	> 70	> 70	< 70				
CCCC[C@@H]1[C@@H](Cc2ccccc2)CCC[C@H](NC(=O)c2nccc(OC)c2O)C(=O)O[C@H]1C [Compound 71, N-((3S,7R,8R,9S)-7-benzyl-8-butyl-9-methyl-2-oxooxonan-3-yl)-3-hydroxy-4-methoxypicolinamide]					> 70	< 70	> 70	> 70
CCCC[C@@H]1[C@@H](Cc2ccc(C(F)(F)F)cc2)CCC[C@H](NC(=O)c2nccc(OC)c2O)C(=O)O[C@H]1C [Compound 72]					> 70	< 70	> 70	< 70
COc1ccnc(C(=O)N[C@H]2CCC[C@H](CCC(C)C)[C@@H](Cc3ccccc3)[C@H](C)OC2=O)c1O [Compound 73]					> 70	> 70	> 70	< 70
COc1ccnc(C(=O)N[C@H]2CCC[C@H](Cc3ccccc3)[C@@H](Cc3ccccc3)[C@H](C)OC2=O)c1O [Compound 74]					> 70	> 70	> 70	> 70
COc1ccnc(C(=O)N[C@H]2CCC[C@H](Cc3ccccc3)[C@@H](C3CCCC3)[C@H](C)OC2=O)c1O [Compound 75]					> 70	> 70	> 70	< 70
COc1ccnc(C(=O)N[C@H]2CCC[C@H](Cc3ccc(Cl)cc3)[C@@H](CC(C)C)[C@H](C)OC2=O)c1O [Compound 76]					> 70	> 70	> 70	< 70
COc1ccnc(C(=O)N[C@H]2CCC[C@H](Cc3ccccc3)[C@@H](CCc3ccccc3)[C@H](C)OC2=O)c1O [Compound 78]					> 70	> 70	> 70	< 70
